In patent publication US6235736A, “3-anilino-2-cycloalkenone derivatives” (Nikken Chemicals Co., Ltd., priority 1997, dated 2001):

Experiments:
Type IV PDE = experiment: PDE IV inhibitory activity (isozyme partially purified from rat neutrophils, 3H-cAMP substrate); assay type: biochemical; details: rat neutrophil PDE IV, 30° C., 30 minutes, read-out: PDE IV inhibiting action IC50
Protocol: Type I, III, IV, and V PDE isozymes were prepared to study the PDE inhibitory activities of and selectivities with the compound of the invention [Trends Pharmacol Sci., 12, 19-27 (1991)]. Type I PDE was purchased from Sigma Corp. Type III, IV, and V PDE isozymes were partially purified from platelets (Type III and V) or neutrophils (Type IV) collected from rats. Each enzyme source was homogenized in a buffer (pH 6.5) containing 20 mM bisTris, 2 mM EDTA (i.e., ethlenediamine tetraacetate), 2-mercaptoethanol, 0.001 mM pepstatin and 0.01 mM leupeptin and was centrifuged at 30000×G for 30 minutes to obtain a supernatant, which was applied to an ion exchange column (Q-sepharose first flow, Pharmacia Corp.) and was eluted with 0 to 1M sodium acetate. Partially purified isozymes were identified by observing the inhibitory effects of conventional inhibitors.
Each PDE isozyme and the test compound dissolved in DMSO (i.e., dimethylsulfoxide) were added to 50 mM Tris--HCI buffer containing 5 mM magnesium chloride. ^3 H-cAMP (for type III and IV PDE) or ^3 H-cGMP (for type I and V PDE) were added as substrates and were reacted at 30° C. for 30 minutes. The reaction was terminated by placing the test tube in boiling water of 100° C. for 5 minutes. The nucleotides formed by PDE were broken down to ^3 H-adenosine or ^3 H-guanosine by 5'-nucleotidase. The substrate and reaction product were separated through an ion-exchange column (i.e., QAE sephadex, Pharmacia Corp.)
The eluted ^3 -H-nucleoside was measured for its radioactivity by a liquid scintillation counter. The inhibitory activities of the compound of the present invention are shown by the IC50 value (M). Further, the inhibitory activities of the test samples against type I, III, and V PDE are 1/10 or less than that against Type IV PDE.

[1] = test system: TPA induced ear edema in mouse; experiment: TPA induced mouse ear edema assay; assay type: in vivo, mouse (male ICR); details: 0.1 mg applied to right ear immediately after TPA; 6 hour
Protocol: Male ICR mice, 5 week old, were divided into groups of seven to eight. 2 μg of TPA (phorbor 12-ministate; Sigma Co.) in 20 μl acetone was applied to the inner and outer surface of right ear of each mouse to cause a reaction. 0.1 mg of compound was dissolved in 20 μl of a tetrahydrofuran-methanol mixture (mixture ratio 1:1) and the solution (20 μl) applied to the right ear immediately after TPA treatment. After 6 hour, the animals were sacrificed and right ear was punched out (.phi. […]) and weighed. The effect of comppund.was calculated as % inhibition as follows: [formula]

SMILES	IC50 (Type IV PDE)	% Inhibition of ear edema [1]
CCC1=C(Nc2ccc(OC)c(OC3CCCC3)c2)CCC1=O [Compound No. 31, 3-(3-cyclopentyloxy-4-methoxyanilino)-2-ethyl-2-cyclopenten-1-one]	220 nM	73.4%
COc1ccc(NC2=C(Cc3ccccc3)C(=O)CC2)cc1OC1CCCC1 [Compound No. 33, 2-benzyl-3-(3-cyclopentyloxy-4-methoxyanilino)-2-cyclopenten-1-one]	400 nM	81.7%
COc1ccc(NC2=C(C)C(=O)CC2)cc1OCC1(c2ccccc2)CC1 [Compound No. 50, 3-[4-methoxy-3-[(1-phenylcyclopropyl)methoxy]anilino]-2-methyl-2-cyclopenten-1-one]	620 nM	62.6%
COc1ccc(NC2=C(C)C(=O)CC2)cc1OCCc1ccccc1 [Compound No. 12, 3-(4-methoxy-3-phenethyloxyanilino)-2-methyl-2-cyclopenten-1-one]	710 nM	52.5%
COc1ccc(N(Cc2ccncc2)C2=C(C)C(=O)CC2)cc1OC1Cc2ccccc2C1 [Compound No. 73, 3-[3-(2-indanyloxy)-4-methoxy-N-(4-pyridylmethyl)anilino]-2-methyl-2-cyclopenten-1-one]	3200 nM	54.3%
COc1ccc(N(Cc2ccc3ccccc3c2)C2=CC(=O)CC2)cc1OC1CCCCC1 [Compound No. 57, 3-[3-cyclohexyloxy-4-methoxy-N-(2-naphthylmethyl)anilino]-2-cyclopenten-1-one]	1900 nM	89.7%
COc1ccc(N(Cc2ccncc2)C2=CC(=O)CC2)cc1OC1CCCC1 [Compound No. 28, 3-[3-cyclopentyloxy-4-methoxy-N-(4-pyridylmethyl)anilino]-2-cyclopenten-1-one]	4300 nM	71.5%
COc1ccc(N(C)C2=C(C)C(=O)CC2)cc1O[C@@H]1C[C@H]2CC[C@@H]1C2 (racemic) [Compound No. 47, 3-[3-[(1RS,2RS,4SR)-bicyclo[2.2. 1]hept-2-yloxy]4-methoxy-N-methylanilino]-2-methyl-2-cyclopenten-1-one]	1600 nM	59.9%
COc1ccc(NC2=C(C)C(=O)CCC2)cc1OC1Cc2ccccc2C1 [Compound No. 48, 3-[3-(2-indanyloxy)-4-methoxyanilino]-2-methyl-2-cyclohexen-1-one]	82 nM	53.8%
COc1ccc(NC2=C(C)C(=O)CCC2)cc1OC1CCCCC1 [Compound No. 55, 3-(3-cyclohexyloxy-4-methoxyanilino)-2-methyl-2-cyclohexen-1-one]	2000 nM	70.8%
COc1ccc(NC2=C(C)C(=O)CCC2)cc1OC1CCCC1 [Compound No. 75, 3-(3-cyclopentyloxy-4-methoxyanilino)-2-methyl-2-cyclohexen-1-one]	470 nM	64.8%
COc1ccc(N(Cc2ccc3ccccc3c2)C2=CC(=O)CC2)cc1OC1CCCC1 [Compound No. 62, 3-[3-cyclopentyloxy-4-methoxy-N-(2-naphthylmethyl)anilino]-2-cyclopenten-1-one]	1200 nM	78.8%
COc1ccc(N(Cc2ccccn2)C2=CC(=O)CCC2)cc1OC1Cc2ccccc2C1 [Compound No. 68, 3-[3-(2-indanyloxy)-4-methoxy-N-(2-pyridylmethyl)anilino]-2-cyclohexen-1-one]	490 nM	52.0%
COc1ccc(NC2=CC(=O)CCC2)cc1O[C@@H]1C[C@H]2CC[C@@H]1C2 (relative stereo) [Compound No. 83, 3-[3-[rel(1R,2R,4S)-bicyclo[2.2. 1]hept-2-yloxy]-4-methoxyanilino]-2-cyclohexen-1-one]	1600 nM	70.5%
